Assay results published in US20260007133A1, “HERBICIDAL COMPOSITION COMPRISING AZINE COMPOUNDS” (BASF SE, priority 2022, published 2026).
Read-outs that look alike come from different tables or passages of the source.

Assays:
Format in all cases: in vivo
Avena fatua = assay: Greenhouse pre-emergence (PRE) herbicidal test on AVEFA; details: use rate 2 gai/ha
Source text: The culture containers used were plastic pots containing loamy sand with approximately 3.0% of humus as substrate. The seeds of the test plants were sown separately for each species.
For the pre-emergence treatment, the active compounds, suspended or emulsified in water, were applied directly after sowing by means of finely distributing nozzles. The containers were irrigated gently to promote germination and growth and subsequently covered with transparent plastic hoods until the plants had rooted. This cover caused uniform germination of the test plants unless this was adversely affected by the active compounds.
Depending on the species, the plants were kept at 10-25° C. and 20-35° C., respectively.
The test period extended over 2 to 4 weeks. During this time, the plants were tended and their response to the individual treatments was evaluated.
Evaluation was carried out using a scale from 0 to 100. 100 means no emergence of the plants, or complete destruction of at least the above-ground parts, and 0 means no damage or normal course of growth. A good herbicidal activity is given at values of at least 70, and very good herbicidal activity is given at values of at least 85.
If not stated differently, the respective components A and B, and if appropriate, C were formulated as a 5% by weight strength emulsion concentrate and, with addition of the amount of solvent system, introduced into the spray liquor used for applying the active compound.
As indicated application was either post emergent (POST) at the respective growth stage (GS) of the weed (BBCH code), or pre-emergent (PRE).
Assessment was 20 days after treatment (DAT).

Lolium multiflorum = assay: Greenhouse pre-emergence (PRE) herbicidal test on LOLMU; details: Lolium multiflorum, pre-emergence; for pest or weed control at 2 g/ha: I-3 solo 2 gai/ha
Procedure, shortened: (§1)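 Seeds were sown per species in loamy sand with ~3.0% humus, treated pre-emergence and kept at 10-25° C or 20-35° C depending on species. Damage was scored at 20 days after treatment on a 0-100 scale (100 = no emergence or complete destruction of above-ground parts, 0 = no damage).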

Ipomoea hederacea [1] = assay: Greenhouse pre-emergence (PRE) herbicidal test on IPOHE; details: Ipomoea hederacea, pre-emergence; for inhibition at 8 g/ha: use rate 8 gai/ha
Procedure, shortened: (§2)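 Seeds sown in loamy sand (~3.0% humus); compounds in water applied by fine nozzles directly after sowing, then pots irrigated and hooded until rooting. Plants held at 10-25° C or 20-35° C by species; damage scored 0-100 (100 = no emergence/complete destruction) 20 days after treatment.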

Alopecurus myosuroides = assay: Greenhouse pre-emergence (PRE) herbicidal test on ALOMY; details: Alopecurus myosuroides, pre-emergence
Procedure, shortened: as §1

Setaria viridis = assay: Greenhouse pre-emergence (PRE) herbicidal test on SETVI; details: Setaria viridis, pre-emergence, 480 h, 20 DAT
Procedure, shortened: as §2

Geranium pusillum = assay: Greenhouse post-emergence (POST) herbicidal test on GERPU; details: for inhibition at 2 g/ha: use rate 2 gai/ha; for inhibition at 4 g/ha: use rate 4 gai/ha
Procedure, shortened: (§3)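 POST spray at 3–15 cm plant height, BBCH stage as given; loamy sand, ~3.0% humus; 10-25° C / 20-35° C per species; 0–100 damage scale; read 20 DAT.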

AMAPA = assay: Greenhouse pre-emergence (PRE) herbicidal test on AMAPA; details: pre-emergence
Echinochloa crus-galli = assay: Greenhouse pre-emergence (PRE) herbicidal test on ECHCG; details: Echinochloa crus-galli, pre-emergence, PRE
Ipomoea hederacea [2] = assay: Greenhouse post-emergence (POST) herbicidal test on IPOHE; details: Ipomoea hederacea, post-emergence
Procedure, shortened: as §3

[3] = 480 h, PRE, use rate 2 gai/ha, 20 DAT, read-out: % activity
[4] = 240 h, use rate 1 gai/ha, 10 DAT

COc1c(Cl)cc(F)c(F)c1Nc1nc(N)nc(C(C)(C)F)n1 [Compound I-3]
60%: pest or weed control at 2 g/ha (Setaria viridis; PRE, 2 gai/ha) | inhibition at 2 g/ha (Setaria viridis; SETVI PRE, use rate 2 gai/ha, read-out: % activity) | inhibition at 2 g/ha (AMAPA; 240 h, use rate 2 gai/ha, 10 DAT) | inhibition at 8 g/ha (AMAPA; 480 h, use rate 8 gai/ha, 20 DAT)
40%: inhibition at 2 g/ha (Lolium multiflorum; PRE, LOLMU, use rate 2 gai/ha, read-out: % activity) | inhibition at 16 g/ha (Ipomoea hederacea [1]; 480 h, PRE, IPOHE, use rate 16 gai/ha, 20 DAT) | inhibition at 32 g/ha (Ipomoea hederacea [1]; 480 h, PRE, IPOHE, use rate 32 gai/ha, 20 DAT) | inhibition at 4 g/ha (Geranium pusillum; Geranium pusillum, post-emergence, POST, GERPU) | inhibition at 1 g/ha (AMAPA; [4])
80%: inhibition at 4 g/ha (Lolium multiflorum; 480 h, PRE, LOLMU, use rate 4 gai/ha, 20 DAT) | inhibition at 2 g/ha (Ipomoea hederacea [2]; 480 h, POST, IPOHE, 2 gai/ha, 20 DAT, read-out: % activity solo application)
35%: inhibition at 8 g/ha (Ipomoea hederacea [1]; IPOHE PRE)
25%: pest or weed control at 2 g/ha (Lolium multiflorum; 480 h, PRE, LOLMU, 20 DAT, read-out: % activity) | inhibition at 2 g/ha (Alopecurus myosuroides; ALOMY PRE, use rate 2 gai/ha, read-out: % activity) | pest or weed control at 2 g/ha (Geranium pusillum; Geranium pusillum, post-emergence, 432 h, POST, GERPU, I-3 solo 2 gai/ha, 18 DAT) | inhibition at 2 g/ha (Geranium pusillum; Geranium pusillum, post-emergence, 480 h, GERPU POST, 20 DAT, read-out: % activity) | pest or weed control at 2 g/ha (Echinochloa crus-galli; 432 h, ECHCG, I-3 solo 2 gai/ha, 18 DAT)
5%: inhibition at 4 g/ha (Ipomoea hederacea [1]; 480 h, PRE, IPOHE, use rate 4 gai/ha, 20 DAT) | inhibition at 2 g/ha (Alopecurus myosuroides; 480 h, PRE, ALOMY, 2 gai/ha, 20 DAT, read-out: % activity solo application) | inhibition at 2 g/ha (Echinochloa crus-galli; 480 h, ECHCG, 2 gai/ha, 20 DAT, read-out: % activity solo application) | inhibition at 2 g/ha (Echinochloa crus-galli; 480 h, ECHCG, use rate 2 gai/ha, 20 DAT, read-out: solo application % activity)
20%: inhibition at 2 g/ha (Avena fatua) | inhibition at 2 g/ha (Lolium multiflorum; [3]) | inhibition at 2 g/ha (Setaria viridis; PRE, SETVI, use rate 2 gai/ha, read-out: solo application % activity) | pest or weed control at 2 g/ha (Geranium pusillum; Geranium pusillum, post-emergence, 480 h, POST, GERPU, I-3 solo 2 gai/ha, 20 DAT) | inhibition at 2 g/ha (Geranium pusillum; Geranium pusillum, post-emergence, POST, GERPU, read-out: % activity) | inhibition at 4 g/ha (Echinochloa crus-galli; 240 h, use rate 4 gai/ha, 10 DAT) | inhibition at 8 g/ha (Echinochloa crus-galli; 240 h, use rate 8 gai/ha, 10 DAT, read-out: % activity)
65%: inhibition at 2 g/ha (Alopecurus myosuroides; [3]) | inhibition at 2 g/ha (Ipomoea hederacea [2]; IPOHE POST, use rate 2 gai/ha, read-out: % activity)
50%: inhibition at 2 g/ha (Lolium multiflorum; 480 h, PRE, LOLMU, use rate 2 gai/ha, 20 DAT, read-out: solo application % activity) | inhibition at 2 g/ha (Setaria viridis; PRE, SETVI, 2 gai/ha, read-out: % activity solo application) | % activity (Geranium pusillum; GERPU POST, use rate 8 gai/ha)
70%: inhibition at 8 g/ha (Lolium multiflorum; 432 h, PRE, LOLMU, 8 gai/ha, 18 DAT, read-out: % activity solo application) | pest or weed control at 8 g/ha (Lolium multiflorum; 432 h, PRE, LOLMU, I-3 solo 8 gai/ha, 18 DAT) | pest or weed control at 8 g/ha (Alopecurus myosuroides; 480 h, PRE, 8 gai/ha, 20 DAT) | inhibition at 8 g/ha (Geranium pusillum; Geranium pusillum, post-emergence, GERPU POST, use rate 8 gai/ha, read-out: % activity) | inhibition at 8 g/ha (Ipomoea hederacea [2]; 480 h, POST, IPOHE, 8 gai/ha, 20 DAT, read-out: % activity solo application)
90%: inhibition at 8 g/ha (Lolium multiflorum; 480 h, LOLMU PRE, 20 DAT, use rate 8 gai/ha, read-out: % activity) | pest or weed control at 8 g/ha (Lolium multiflorum; 480 h, PRE, 8 gai/ha, 20 DAT) | inhibition at 8 g/ha (Alopecurus myosuroides; 480 h, PRE, ALOMY, 8 gai/ha, 20 DAT, read-out: % activity solo application) | inhibition at 8 g/ha (Alopecurus myosuroides; 480 h, PRE, ALOMY, use rate 8 gai/ha, 20 DAT, read-out: solo application % activity) | inhibition at 4 g/ha (Alopecurus myosuroides; PRE, ALOMY, use rate 4 gai/ha) | pest or weed control at 8 g/ha (Ipomoea hederacea [2]; 480 h, POST, 8 gai/ha, 20 DAT)
10%: inhibition at 2 g/ha (Lolium multiflorum; 432 h, PRE, LOLMU, 2 gai/ha, 18 DAT, read-out: % activity solo application) | pest or weed control at 2 g/ha (Lolium multiflorum; 432 h, PRE, LOLMU, 18 DAT, read-out: % activity) | pest or weed control at 2 g/ha (Alopecurus myosuroides; 480 h, PRE, 2 gai/ha, 20 DAT, read-out: % activity) | pest or weed control at 2 g/ha (Geranium pusillum; Geranium pusillum, post-emergence, 480 h, POST, 2 gai/ha, 20 DAT) | pest or weed control at 8 g/ha (Geranium pusillum; Geranium pusillum, post-emergence, 480 h, POST, GERPU, I-3 solo 8 gai/ha, 20 DAT) | inhibition at 16 g/ha (Geranium pusillum; Geranium pusillum, post-emergence, 480 h, POST, GERPU, use rate 16 gai/ha, 20 DAT) | inhibition at 1 g/ha (Echinochloa crus-galli; [4]) | inhibition at 2 g/ha (Echinochloa crus-galli; 240 h, use rate 2 gai/ha, 10 DAT, read-out: % activity)
95%: inhibition at 8 g/ha (Lolium multiflorum; 480 h, PRE, LOLMU, 8 gai/ha, 20 DAT, read-out: % activity solo application) | inhibition at 8 g/ha (Echinochloa crus-galli; 480 h, ECHCG, 8 gai/ha, 20 DAT, read-out: % activity solo application) | inhibition at 8 g/ha (Echinochloa crus-galli; 480 h, ECHCG, use rate 8 gai/ha, 20 DAT, read-out: solo application % activity)
75%: pest or weed control at 8 g/ha (Geranium pusillum; Geranium pusillum, post-emergence, 480 h, POST, 8 gai/ha, 20 DAT)
0%: inhibition at 4 g/ha (Geranium pusillum; Geranium pusillum, post-emergence, 480 h, POST, GERPU, 20 DAT)
30%: inhibition at 8 g/ha (Ipomoea hederacea [1]; 480 h, PRE, IPOHE, 20 DAT) | inhibition at 2 g/ha (Geranium pusillum; Geranium pusillum, post-emergence, GERPU POST, read-out: % activity)
